The subject of this assay is last instar larvae of common house mosquitos (Culexpipienspallens). Nature of the assay: Larval mortality test on common house mosquitos in treated water (Test Example 5). Format: in vivo. As to conditions: Culicidae, 192 h; active ingredient 3.5 ppm in ion-exchanged water; 20 last instar larvae; observed after 8 days. As for the experimental part:
Each of the formulations of Compounds (4), (5), (11) and (12) of the present invention obtained in Formulation Example 15 was diluted with water, so as to have a concentration of active ingredient of 500 ppm, to prepare a test drug solution.
0.7 ml of the test drug solution was added to 100 ml of ion-exchanged water (a concentration of active ingredient of 3.5 ppm).

For orientation: mortality means the share of the test organisms that died. Read a low mortality as more survivors. The molecule `O=C(/C=C/CCCCCCc1ccccc1)NCC1CCOC1` (stereo not shown) [Compound (4), (E)-N-(tetrahydrofuran-3-ylmethyl)-9-phenyl-2-noneneamide] yielded a mortality at 3.5 ppm of at least 95%.

On to `O=C(/C=C/CCCCCCCc1ccccc1)NCC1CCOC1` (stereo not shown) [Compound (5), (E)-N-(tetrahydrofuran-3-ylmethyl)-10-phenyl-2-deceneamide], for which the mortality at 3.5 ppm is at least 95%. Then `O=C(/C=C/CCCCCCc1ccccc1)NCC1CCOCC1` [Compound (11), (E)-N-(tetrahydropyran-4-ylmethyl)-9-phenyl-2-noneneamide], with at least 95%; and `C/C(=C\C(=O)NCC1CCOCC1)CCCc1ccccc1` [Compound (12), (E)-N-(tetrahydropyran-4-ylmethyl)-3-methyl-6-phenyl-2-hexeneamide], with at least 95%.

These data come from patent US20150005348A1, “AMIDE COMPOUND AND USE THEREOF FOR PEST CONTROL” (SUMITOMO CHEMICAL COMPANY, LIMITED, priority 2012, published 2015).
